Columns and labels:
Format in all cases: cell-based, human
[1] = system: patient CD8+ T cells; assay: pMHC tetramer array with unstimulated patient CD8+ T cells
Experimental: FIG. 11: pMHC arrays. pMHC molecules were folded into tetramers using either streptavidin alone or AlexaFluor 532 (Molecular Probes) conjugated to streptavidin. Tetramers were spotted onto hydrogel slides using a contact deposition-type printer (Genetix), at a concentration of 0.5 mg/ml in 2% glycerol. Printed arrays were immobilised for 48 hours and stored at 4° C. until use. (FIG. 11 i) CD8+ T cells were negatively isolated from normal donor buffy coats obtained from National Blood Service UK or patient samples from the Department of Haematology, Southampton General Hospital following informed consent using EasySep isolation kits. […] Excess culture medium was removed before slides were analysed on the ProScanArray (PerkinElmer). […] Negatively isolated CD8+ T cells were labelled with CD8-FITC (FL1-H) and pMHC-SAPE (FL2-H) and analysed by flow cytometry using the FACScalibur™. […]
FIG. 12: Analysis of patient samples. […] Positives were only scored where at least 3 of 9 spots had T cells stuck to them and this occurred in both sets of spots in independent locations on the array. […]
In short, pMHC molecules were folded into tetramers using streptavidin alone or streptavidin conjugated to AlexaFluor 532 (Molecular Probes). […] Excess culture medium was removed before slides were analysed on the ProScanArray (PerkinElmer). […]

[2] = system: healthy donor CD3+ cells; assay: Intracellular IFNγ staining of peptide stimulated CD3+ cultures; details: after three stimulations, CD4 or CD8 co-staining
Experimental: For detection of IFNγ, Brefeldin A was added to T cells 12 hours prior to intracellular staining, to a final concentration of […]. Effector cells were washed with PBS and stained with CD8-PE or CD4-PE antibody for 30 minutes at room temperature. Stained cells were then washed twice with HBSS, and resuspended in the residual volume. 100 μl of fixation solution (Caltag Laboratories, UK) was added to each tube and samples incubated for 15 minutes at room temperature. Cells were then washed with cold HBSS, 1% FBS 0.1% sodium azide and resuspended in the residual volume. 100 μl of permeabilisation medium (Caltag Laboratories) and 5 μl of IFNγ-FITC was added to each tube, and incubated for 20 mins at room temperature. Finally, cells were washed and resuspended in 300-500 μl HBSS ready for FACS analysis. All antibodies and isotype controls were purchased from (Becton Dickinson, Oxford, UK) except HLA-A2 (from Serotec).
After 24 hours in maturation cytokines, DCs were incubated with peptide (50 μg/ml) for 4 hours. PBMCs or CD3^+ cells from healthy donors or patients with solid tumours were seeded into a 12-well plate, in X-VIVO 15 at a density of 2×10^6/ml. […] Culture supernatants were analysed for IFNγ content by ELISA. After the 2-3 week culture period, stimulated effector cells were washed and analysed by pentamer staining, intracellular cytokine staining or ELISPOT assays.

[3] = system: solid tumour patient CD8+ T cells; assay: Pentamer staining, solid tumour patient CD3+ T cells stimulated with peptide loaded autologous DCs
Experimental: Assessment of peptide specific T cells was carried out by staining 10^6 effector cells with 10 μl of PE labeled, HLA-A*0201 pentamers (custom made by Proimmune) for 10 minutes, at room temperature, in the dark. Cells were then washed and co-stained with CD8-FITC for 20 minutes at room temperature. The lymphocyte gate was selected according to FSSCH/SSCH and 50,000 events acquired. Staining with control pentamers was carried out for each sample.
After 24 hours in maturation cytokines, DCs were incubated with peptide (50 μg/ml) for 4 hours. PBMCs or CD3^+ cells from healthy donors or patients with solid tumours were seeded into a 12-well plate, in X-VIVO 15 at a density of 2×10^6/ml. Peptide pulsed, monocyte derived DCs were washed and prepared at 2×10^5/ml. PBMC cultures received peptide pulsed DCs at a stimulator:effector ratio of […], or in the case of unstimulated controls, medium only. IL-7 was added to cultures at a final concentration of 10 U/ml on day 3. Cultures were restimulated by addition of peptide pulsed DCs on, day 7, and in some cases day 14, together with IL-7 and IL-2 (both at 10 U/ml). 200 μl of culture supernatants were collected at various intervals throughout the culture period and replaced with fresh medium. In the case of AML patient cultures, T2 cells were pulsed with peptide and used as stimulators in the same way as autologous DCs described above. Culture supernatants were analysed for IFNγ content by ELISA. After the 2-3 week culture period, stimulated effector cells were washed and analysed by pentamer staining, intracellular cytokine staining or ELISPOT assays.
There have been no reports of PASD1 expression in primary head and neck, prostate or colon cancer primary cells to date, but the head and neck cancer cell line Hn5^19, the lung cancer line H1299^19 and the colon cancer cell line SW480^24 are PASD1 positive. This raises the possibility that some solid cancer patients may be able to raise a response to the PASD1 peptides. Cells used in these experiments were isolated from leukophoresis samples taken several months after the cessation of treatment. Negatively purified CD3^+ T cells were stimulated with autologous monocyte derived DCs as described previously. Pentamer analysis was carried out after each stimulation.

P14: modified PASD1 peptide, SEQ ID NO 21, derivative of wild type peptide P8 (RLWQELSDI; Synthetic sequence amino acid sequence p14)
HLA-A2 positive ALL and CML patients with P14-specific T cells ([1]; 1 ALL and 1 CML HLA-A2 positive patient): neither | HLA-A2 positive AML patients with P14 specific T cells on the pMHC array ([1]; at presentation, no prior ex vivo stimulation): two of four | Phenotype of the IFNγ secreting cells [2]: IFNγ secreting cells were CD8+ | P14 pentamer positive cells, frequency of the CD8+ T cell population ([3]; colon cancer patient, fourth stimulation): 13.6% | P14 pentamer positive cells, frequency of CD8+ cells ([3]; colon cancer patient, stimulation with DCs alone, corrected for control pentamer): 0.09% | P14 pentamer positive cells, frequency of CD8+ T cells ([3]; colon cancer patient, three rounds of P14 peptide stimulation): 0.11% | Pentamer positive cells, frequency of CD8+ cells ([3]; head and neck patient, absence of peptide stimulation): 0.02% | Pentamer positive cells, frequency of the CD8+ population ([3]; head and neck patient, after peptide stimulation (P15: three rounds)): not expanded | Pentamer positive cells ([3]; prostate cancer patient, up to four stimulations): No pentamer positive cells were detected
